20 compounds from patent US7772260B2, “Imidazo[2,1-b]-1,3,4-thiadiazole sulfonamides” (Aegera Therapeutics Inc., priority 2001, dated 2010) can be followed below.

In data set [1] the test system is SCG neurons. The data set is described as follows: Protection of SCG neurons from anti-NGF killing. The format is cell-based, Sprague Dawley rats. Particulars: anti-NGF antibody, serum and NGF free 48 hours, Alamar Blue, +/−1 uM, read-out: IC(50), rescue from anti-NGF killing of SCG neurons. As for the experimental part: Neurotrophins are critical to the growth, development, and survival of small fiber neurons of the PNS. SCG neurons are neurons of the PNS that undergo apoptosis upon NGF withdrawal. In a typical experiment SCG neurons are cultured in the presence of NGF, which induces survival and neurite out-growth. After 5 days the NGF is removed by either the addition of anti-NGF polyclonal antibody (Sigma) or by repeated washings (4 times) with NGF free media, resulting in the apoptosis of up to 90% of the neurons after 48 hours, as measured by MTS staining.
After 4 days the cells were treated with anti-NGF antibody (Sigma). At this time compound was added and the cells were maintained serum and NGF free for 48 hours, at which time viability was assessed using Alamar Blue (Medicorp) staining.
In general terms: Alamar Blue is a resazurin reagent that responds to reducing activity.

Data set [2] concerns SCG neurons. In words: cells. In kind it is cell-based, Sprague Dawley rats. The following applies: Taxol™ (50 ng/mL), viability 48 hours later, MTS, read-out: IC(50), protection of SCG neurons from Taxol killing.
Another data set concerns the target CA II (Homo sapiens, UniProt P00918). The data set is described as follows: CA II inhibition. In kind it is biochemical. Particulars: read-out: IC(50), CA II inhibition. As for the experimental part: CA II inhabition was measured using the protocol described by Pocker, Y.'Stone, J. Biochemistry 1967, 6, 668.
For the next data set, the system named is sciatic nerve. The data set is described as follows: Sciatic nerve crush injury model. The following applies: 1 and 10 mg/kg. In kind it is in vivo, Sprague Dawley rats. An excerpt: The sciatic nerve crush model is a representative model of axonal repair and regeneration. The sciatic nerve is physically crushed with forceps at the mid-thigh; only the right leg is injured, the left leg serving as a control. The axons die from the crush point to their point of innervation. Functional loss of the axons is rapidly observed as the animals drag their right leg and the toes of the right leg no longer spread. Recovery is observed in approximately 28 days as the animals regain use of their right leg. More quantitative measurements of recovery include toe spread measurements between the digits 1 and 5 and digits 2 and 4, gait analysis and electrical conductivity from the toes to the injury site (see Example 161). Male Sprague Dawley rats were anaesthetized (halothane and buprenorphine) and the right hind leg was blunt dissected to expose the sciatic nerve at mid-thigh. The nerve was crushed twice for a total of 30 seconds using No.7 Dumont jeweller's forceps. The incision is sutured and the animals are allowed to recover for 28 days. Functional recovery was measured by gait, nerve conductance and toe spread measurements between digits 1 and 5 and digits 2 and 4.

For a further data set, the system named is Sprague Dawley rats. The format is in vivo. Particulars: rat, in vivo, 9 mg/kg. The method, then:
Taxol™ commonly causes dose dependent peripheral neuropathies during cancer treatment. […] All of the Taxol™ treated animals developed peripheral neuropathies, characterized by ‘tip toe walking’. The extent of this neuropathy was analyzed by quantifying the refracted light captured by a video camera as the animals walked over a glass plate.
Adult Sprague Dawley rats were treated with Taxol™ (IP, 9 mg/kg in Cremophor EL and ethanol) twice weekly for 3 weeks (J. Neuro-Oncology (1999) 41: 107-116). Compound was administered I hour prior to Taxol™ treatment (IP, 1, 5 and 10 mg/kg in hydroxypropyl-β-cyclodextrin). Taxol™ treated control animals were treated with saline solution at the same time of Compound treated animals. Non-treated control animals were treated with saline solution as above. Weight gain was measured every second day, starting at Day 1. Gait analysis was measured by quantifying the refracted light captured by a video camera as the animals walked over a glass plate, 2 days after the final Taxol™ treatment (Physiology and Behavior (1994), 55(4): 723-726; Med. Sci. Res. (1988) 16: 901-902). […] H/M wave recovery was analyzed using standard procedures 2 days after the final Taxol™ treatment (Muscle Nerve (1998) 21: 1405-1413; Annals of Neurology (1998) 43 (1): 46-55).
Male Spraugue Dawley rats were treated with 50% HPDC vehicle (veh/veh), compound I dissolved in 50% HPDC at 1, 5, or 10 mg/kg (veh/1, veh/5, veh/10, respectively), or Taxol™ (9 mg/kg)+compound 1 dissolved in 50% HPDC at 1, 5, and 10 mg/kg (Tax/1, Tax/5, Tax/10) according to the dosing regime described in Example 160. Weight measurements were made ever other day.
Two days after the completion of drug treatments animal walking gait was analyzed according to a) total imprint area, and b) total number of contact points.
FIG. 6 illustrates the effect of Compound 1 on H-reflex amplitude, a measurement of H/M wave disturbance induced by Taxol™. Two days after the completion of drug treatments, the dorsal root ganglia and attached nerves were dissected bilaterally from L4 and L5 and their H/M wave conductance measured.

Data set [3] concerns SCG neurons. In words: In vitro protection of SCG neurons from vincristine killing. In kind it is cell-based, Sprague Dawley rats. Particulars: vincristine 100 ng/mL. An excerpt: Similarly, vincristine and vinblastine are commonly used anti-tumour agents whose mode of action involve tubulin binding.

Where “and” joins values, the source holds several entries; their conditions need not be identical. Identical values can stand only once. Counter-ions that a name gives are not always drawn. Some results are limits rather than exact numbers.

On to `COc1ccccc1-c1ccc(-c2cn3nc(S(N)(=O)=O)sc3n2)cc1` [Compound 75, 6-(4-(2-methoxyphenyl)phenyl)imidazo[2,1-b]-1,3,4-thiadiazole-2-sulfonamide], for which the IC50 is 10 µM with SCG neurons [1] (Rattus norvegicus, Neuron); 5 µM in the data set on SCG neurons [2] (Rattus norvegicus, Neuron); 0.441 µM at CA II.
For the compound `NS(=O)(=O)c1nn2cc(-c3cc4ccccc4o3)nc2s1` [Compound 111, 6-(Benzo[b]furan-2-yl)imidazo[2,1-b]-1,3,4-thiadiazole-2-sulfonamide], the IC50 was found to be 7 µM in the data set on SCG neurons [1] (Rattus norvegicus, Neuron); 2 µM in the data set on SCG neurons [2] (Rattus norvegicus, Neuron); 53.2 µM at CA II. In addition, in the data set with sciatic nerve, the “functional recovery after sciatic nerve crush” value was “improved recovery”.
As for `NS(=O)(=O)c1nn2cc(-c3ccc(Oc4ccc([N+](=O)[O-])cc4)cc3)nc2s1` [Compound 99, 6-(4-(4-nitrophenoxy)phenyl)imidazo[2,1-b]-1,3,4-thiadiazole-2-sulfonamide], the IC50 with SCG neurons [1] (Rattus norvegicus, Neuron) amounted to 7 µM; in the data set on SCG neurons [2] (Rattus norvegicus, Neuron) it was 2 µM; on CA II it was 0.914 µM.
As to `CC(=O)O[C@H]1C(=O)[C@@]2(C)[C@H]([C@H](OC(=O)c3ccccc3)[C@]3(O)C[C@H](OC(=O)[C@H](O)[C@@H](NC(=O)c4ccccc4)c4ccccc4)C(C)=C1C3(C)C)[C@]1(OC(C)=O)CO[C@@H]1C[C@@H]2O` [Taxol™, reference compound], in the data set with Sprague Dawley rats, the “reduction in foot-pad contact as compared to control animals” value is recorded as 46% and the “weight gain over a thirteen day period” value is given as “no weight gain”.
For `NS(=O)(=O)c1nn2cc(-c3ccc(-c4ccc(C(F)(F)F)cc4)cc3)nc2s1` [Compound 82, 6-(4-(4-trifluoromethylphenyl)phenyl)imidazo[2,1-b]-1,3,4-thiadiazole-2-sulfonamide], the IC50 in the data set with SCG neurons [1] (Rattus norvegicus, Neuron) came to 25 µM; in the data set with SCG neurons [2] (Rattus norvegicus, Neuron), 2 µM; at CA II, 5.43 µM.
As to `NS(=O)(=O)c1nn2cc(-c3ccc(OCCO)cc3)nc2s1` [Compound 26], the IC50 in the data set on SCG neurons [1] (Rattus norvegicus, Neuron) was found to be 23 µM; with SCG neurons [2] (Rattus norvegicus, Neuron) it was 7 µM.
Take `NS(=O)(=O)c1nn2cc(-c3ccc(Oc4ccccc4)cc3)nc2s1` [Compound 87, 6-(4-phenoxyphenyl)imidazo[2,1-b]-1,3,4-thiadiazole-2-sulfonamide]: the IC50 was determined as 10 µM in the data set on SCG neurons [1] (Rattus norvegicus, Neuron); 5 µM in the data set with SCG neurons [2] (Rattus norvegicus, Neuron); 0.128 µM at CA II.
Regarding `COc1cccc(-c2ccc(-c3cn4nc(S(N)(=O)=O)sc4n3)cc2)c1` [Compound 149, 6-(3′-methoxybiphen-4-yl)imidazo[2,1-b]-1,3,4-thiadiazole-2-sulfonamide sodium salt], the IC50 in the data set with SCG neurons [1] (Rattus norvegicus, Neuron, 48 h) is 7 µM.
As to `NS(=O)(=O)c1nn2cc(-c3ccc(-c4ccccc4)cc3)nc2s1` [Compound 72, 6-(Biphenyl)imidazo[2,1-b]-1,3,4-thiadiazole-2-sulfonamide], the IC50 in the data set on SCG neurons [1] (Rattus norvegicus, Neuron) is 17 µM; in the data set on SCG neurons [2] (Rattus norvegicus, Neuron), 10 µM; at CA II, 1.61 µM and 2.19 µM.
Consider `CC(C)c1ccc(Oc2ccc(-c3cn4nc(S(N)(=O)=O)sc4n3)cc2)cc1` [Compound 97, 6-(4-(4-iso-propylphenoxy)phenyl)imidazo[2,1-b]-1,3,4-thiadiazole-2-sulfonamide], for which, in the data set with SCG neurons [1] (Rattus norvegicus, Neuron), the IC50 turned out to be 7 µM.
As for “6-(4-bromophenoxyphenyl)imidazo[2,1-b]-1,3,4-thiadiazole-2-sulfonamide [Compound 95]”, the IC50 in the data set with SCG neurons [1] was found to be 7 µM; in the data set on SCG neurons [2], 3 µM.
Consider `COc1cc(-c2cn3nc(S(N)(=O)=O)sc3n2)ccc1OCCOCc1ccccc1` [Compound 35], for which, in the data set on SCG neurons [1] (Rattus norvegicus, Neuron), the IC50 was over 30 µM.
`NS(=O)(=O)c1nn2cc(-c3ccc(-c4ccc(CO)cc4)cc3)nc2s1` [Compound 74, 6-(4-(hydroxymethylphenyl)phenyl)imidazo[2,1-b]-1,3,4-thiadiazole-2-sulfonamide]: the IC50 in the data set on SCG neurons [1] (Rattus norvegicus, Neuron) was determined as 20 µM; with SCG neurons [2] (Rattus norvegicus, Neuron), 7 µM; at CA II, 1.68 µM.
With `COc1cc(-c2cn3nc(S(N)(=O)=O)sc3n2)ccc1OCCO` [Compound 34], in the data set with SCG neurons [1] (Rattus norvegicus, Neuron), the IC50 was over 30 µM.
As for `NS(=O)(=O)c1nn2cc(-c3ccc(Oc4ccc(Cl)c(Cl)c4)cc3)nc2s1` [Compound 92, 6-(3,4-dichlorophenoxyphenyl)imidazo[2,1-b]-1,3,4-thiadiazole-2-sulfonamide], the IC50 in the data set on SCG neurons [1] (Rattus norvegicus, Neuron) is 7 µM.
On to `NS(=O)(=O)c1nn2cc(-c3ccc(-c4cccc(C(F)(F)F)c4)cc3)nc2s1` [Compound 81, 6-(4-(3-trifluoromethylphenyl)phenyl)imidazo[2,1-b]-1,3,4-thiadiazole-2-sulfonamide], for which the IC50 in the data set with SCG neurons [1] (Rattus norvegicus, Neuron) is 5 µM; with SCG neurons [2] (Rattus norvegicus, Neuron), 3 µM; on CA II, 1.58 µM.
Take `NS(=O)(=O)c1nn2cc(-c3ccc(-c4cccs4)cc3)nc2s1` [Compound 84, 6-(thiophen-2-yl-phenyl)imidazo[2,1-b]-1,3,4-thiadiazole-2-sulfonamide]: the IC50 in the data set with SCG neurons [1] (Rattus norvegicus, Neuron) was over 30 µM.
Still for that read-out and setting: in the case of `NS(=O)(=O)c1nn2cc(-c3ccc(Oc4ccc(F)c(F)c4)cc3)nc2s1` [Compound 89, 6-(4-(3,4-difluorophenoxy)phenyl)imidazo[2,1-b]-1,3,4-thiadiazole-2-sulfonamide] it was 10 µM.
Regarding `CC[C@]1(O)C[C@H]2CN(CCc3c([nH]c4ccccc34)[C@@](C(=O)OC)(c3cc4c(cc3OC)N(C=O)[C@H]3[C@@](O)(C(=O)OC)[C@H](OC(C)=O)[C@]5(CC)C=CCN6CC[C@]43[C@@H]65)C2)C1` [vincristine, reference compound], in the data set on SCG neurons [3], the “apoptosis of cultured SCG neurons” value is at least 80%.
Turning to `NS(=O)(=O)c1nn2cc(-c3ccc4c(c3)OCCCO4)nc2s1` [Compound 21, 6-(3,4-dihydro-2H-1,5-benzodioxepin-7-yl)imidazo[2,1-b]-1,3,4-thiadiazole-2-sulfonamide], the IC50 in the data set on SCG neurons [1] (Rattus norvegicus, Neuron) stood at 22 µM; in the data set with SCG neurons [2] (Rattus norvegicus, Neuron), 7 µM; on CA II it was 5.32 µM.
